The values that follow come from patent publication US9023789B2, “Amylin analogs and pharmaceutical compositions thereof” (Novo Nordisk A/S, priority 2012, dated 2015).

One series has as its target T1, rat calcitonin receptor (Rattus norvegicus, UniProt P32214).
T1 construct: expressed in transfected cells; host or cells: BHK tk'ts 13 (transient, FuGENE 6), membranes
T1 sequence (P32214 25-479 isoform P32214-2 limits assumed): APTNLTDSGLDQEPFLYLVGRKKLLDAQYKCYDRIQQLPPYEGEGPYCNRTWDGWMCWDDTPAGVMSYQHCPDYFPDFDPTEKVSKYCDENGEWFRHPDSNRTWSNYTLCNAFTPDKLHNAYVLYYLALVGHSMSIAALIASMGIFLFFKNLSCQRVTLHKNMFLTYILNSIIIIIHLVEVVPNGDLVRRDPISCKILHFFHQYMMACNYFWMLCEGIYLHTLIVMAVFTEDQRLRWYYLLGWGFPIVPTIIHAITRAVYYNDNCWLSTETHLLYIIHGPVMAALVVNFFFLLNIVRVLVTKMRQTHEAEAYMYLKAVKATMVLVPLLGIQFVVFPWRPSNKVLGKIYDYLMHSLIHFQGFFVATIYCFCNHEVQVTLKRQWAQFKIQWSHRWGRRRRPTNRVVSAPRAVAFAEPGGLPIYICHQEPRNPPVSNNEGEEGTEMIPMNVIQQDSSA
As to the kind of experiment: ASSAY (VIII) binding to the rat calcitonin receptor. The note with it: Table 7, read-out: rCTR bind IC50. In a few lines: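 Rat calcitonin receptor is expressed transiently in BHK tk′ts 13 cells cultured in DMEM with 10% FBS. Roughly two days (approximately 48 hours) post-transfection, cells are harvested for membrane preparation.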

Series [1] has as its target T2, rat amylin receptor (rat calcitonin receptor + rat RAMP 3) (Rattus norvegicus, UniProt P32214+Q9JJ73).
T2 construct: expressed in transfected cells; host or cells: BHK tk'ts 13 (transient, FuGENE 6), membranes
T2 sequence (P32214 25-479 isoform P32214-2 limits assumed): T1 sequence (P32214 25-479 isoform P32214-2 limits assumed)
T2 sequence (Q9JJ73 23-147 partner): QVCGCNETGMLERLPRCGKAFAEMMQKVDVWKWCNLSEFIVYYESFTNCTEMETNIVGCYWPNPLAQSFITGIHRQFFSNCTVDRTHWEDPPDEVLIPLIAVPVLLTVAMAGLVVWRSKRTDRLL
In words: ASSAY (VI) binding to the rat amylin receptor. The note with it: for IC50: binding to rat amylin receptor, read-out: rAmylin-R bind IC50. Put shortly: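 This assay measured binding to the rat amylin receptor. BHK tk′ts 13 cells were transiently transfected with the rat calcitonin receptor using FuGENE® 6 (Roche), following the manufacturer's recommendations. About 48 hours after transfection, the cells were harvested and membranes were prepared from them for the binding determination.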

A short description of series [2]: ASSAY (III) ThT fibrillation assay for physical stability. The class given is physicochemical. Put shortly: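 Formulations with 1 μM ThT, pH adjusted as required, incubated at 37 °C with 960 rpm orbital shaking; fluorescence (ex 444/em 485 nm) read every 20 min. Fibrillation reported as mean ThT fluorescence ± SD of 4–8 replicates at time points; polypeptide concentration measured by reverse-phase HPLC before and after, post-centrifugation.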

Setting [3] is: Table 7, rat binding selectivity, rCTR IC50 / rAmylin-R IC50.
The mark [4] stands for this setting: Table 7a (preferred compounds), rat binding selectivity, rCTR IC50 / rAmylin-R IC50.
Setting [5] is: ratio of rCTR bind IC50 to rAmylin-R bind IC50.

Numbered stars: 1 amine (or outer) side, 2 acyl side, 3 side chain; on linkers, the order of the positions; unused ones are H or OH. Bridge positions count the residues as written; N and C are the ends. Peptide text beside a SMILES is read from it. * marks the point of attachment. C20 diacid = O=C(O)CCCCCCCCCCCCCCCCCCC(=O)*; γGlu = O=C(O)[C@H](CCC(=O)[*:2])N[*:1]

What is called IC50 is the concentration at which inhibition is half-maximal.

For the molecule `CC[C@H](C)[C@H](NC(=O)[C@H](C)NC(=O)CNC(=O)[C@H](Cc1ccccc1)NC(=O)[C@H](CC(N)=O)NC(=O)[C@@H]1CCCN1C(=O)[C@H](CO)NC(=O)[C@H](CO)NC(=O)[C@H](Cc1c[nH]cn1)NC(=O)[C@H](CCCNC(=N)N)NC(=O)[C@H](CC(C)C)NC(=O)[C@H](Cc1ccccc1)NC(=O)[C@H](CC(N)=O)NC(=O)[C@H](C)NC(=O)[C@H](CC(C)C)NC(=O)[C@H](CCCNC(=N)N)NC(=O)[C@H](CCC(N)=O)NC(=O)[C@@H](NC(=O)[C@H](C)NC(=O)[C@@H]1CSSC[C@H](NC(=O)[C@@H](N)CCCCNC(=O)COCCOCCNC(=O)CCCCCCCCCCCCCCCCCCC(=O)O)C(=O)N[C@@H](CC(N)=O)C(=O)N[C@@H]([C@@H](C)O)C(=O)N[C@@H](C)C(=O)N[C@@H]([C@@H](C)O)C(=O)N1)[C@@H](C)O)C(=O)N1CCC[C@H]1C(=O)N[C@@H](CO)C(=O)N[C@@H](CO)C(=O)N[C@H](C(=O)N[C@@H](CC(N)=O)C(=O)N[C@H](C(=O)NCC(=O)N[C@@H](Cc1c[nH]cn1)C(=O)N[C@@H](CC(N)=O)C(=O)N[C@H](C(=O)N[C@@H](Cc1ccc(O)cc1)C(N)=O)[C@@H](C)O)C(C)C)[C@@H](C)O` [Example 91], the half-maximal inhibitory concentration (IC50) on rat calcitonin receptor was 29.5 nM; in series [1] (Table 7), 0.386 nM. Further, the “Ratio rCT/rAmylin binding” value in series [1] (setting [3]), in series [1] (setting [4]) and in series [1] (setting [5]) was 76.3 throughout. Further, the “ThT pH 4.0 lag time (h)” value in series [2] came out at 4 h.
With `CC[C@H](C)[C@H](NC(=O)[C@H](C)NC(=O)CNC(=O)[C@H](Cc1ccccc1)NC(=O)[C@H](CC(N)=O)NC(=O)[C@@H]1CCCN1C(=O)[C@H](CO)NC(=O)[C@H](CO)NC(=O)[C@H](Cc1c[nH]cn1)NC(=O)[C@H](CCCNC(=N)N)NC(=O)[C@H](CC(C)C)NC(=O)[C@H](Cc1ccccc1)NC(=O)[C@H](CC(N)=O)NC(=O)[C@H](C)NC(=O)[C@H](CC(C)C)NC(=O)[C@H](CCCNC(=N)N)NC(=O)[C@H](CCC(N)=O)NC(=O)[C@@H](NC(=O)[C@H](C)NC(=O)[C@@H]1CSSC[C@H](NC(=O)[C@H](CCCCN)NC(=O)CC[C@H](NC(=O)CCCCCCCCCCCCCCCCCCC(=O)O)C(=O)O)C(=O)N[C@@H](CC(N)=O)C(=O)N[C@@H]([C@@H](C)O)C(=O)N[C@@H](C)C(=O)N[C@@H]([C@@H](C)O)C(=O)N1)[C@@H](C)O)C(=O)N1CCC[C@H]1C(=O)N[C@@H](CO)C(=O)N[C@@H](CO)C(=O)N[C@H](C(=O)N[C@@H](CC(N)=O)C(=O)N[C@H](C(=O)NCC(=O)N1CCC[C@H]1C(=O)N[C@@H](CCC(=O)O)C(=O)N[C@H](C(=O)N[C@@H](Cc1ccc(O)cc1)C(N)=O)[C@@H](C)O)C(C)C)[C@@H](C)O` [Example 29] ({C20 diacid-γGlu}-KCNTATCATQRLANFLRHSSPNFGAIPSSTNVGPETY-NH2; disulfide 2-7), the IC50 on rat calcitonin receptor was 21.6 nM; in series [1] (Table 7), 0.322 nM. For the same molecule, the “Ratio rCT/rAmylin binding” value in series [1] (setting [3]), in series [1] (setting [4]) and in series [1] (setting [5]) was 67.0 in each case. Also, the “ThT pH 4.0 lag time (h)” value in series [2] is reported as 16 h.
